The conditions of the data set: human, in vivo. As to the method: The patient collected an approximately 500 μL blood sample from a fingerstick. The small volume blood sample was collected as described above, using a K2-EDTA collection tube, and timely transported to the testing facility. At the testing facility, the whole blood sample in K2-EDTA was split into 3 fractions: (1) 50 μL for immunosuppressant drug monitoring using tandem mass spectrometry, (2) 50 μL for complete blood count by flow cytometry, and (3) the remainder for various other tests.
The first fraction was prepared by adding 200 μL of ZnSO4 (zinc sulfate) to the fraction, and the cells were lysed by vortexing for 10 seconds. Then 500 μL of a solution containing acetonitrile and internal reference standards (ascomycin: 2 nanograms (ng)/ml, along with cyclosporin D 25 ng/ml) was added, and the sample was mixed by vortexing for 20 seconds. The tubes were then spun down for 4 minutes at 14,000×g (14,000 times gravity). The supernatant was decanted into vials for assay by mass spectrometry.
The patient collected an approximately 500 μL blood sample from a fingerstick. The small volume blood sample was collected using a K2-EDTA collection tube, transported to the testing facility, and divided into three fractions as described above. Each fraction was prepared as described above for the adult patient, and the same immunosuppressant drug monitoring of immunosuppressants, complete blood count, assays for renal function, and assays for hepatic function were performed.

Like-named read-outs stand apart in the source and are kept apart here.

As for `CO[C@H]1C[C@@H]2CC[C@@H](C)[C@@](O)(O2)C(=O)C(=O)N2CCCC[C@H]2C(=O)O[C@H]([C@H](C)C[C@@H]2CC[C@@H](O)[C@H](OC)C2)CC(=O)[C@H](C)/C=C(\C)[C@@H](O)[C@@H](OC)C(=O)[C@H](C)C[C@H](C)/C=C/C=C/C=C/1C` [Rapamycin], the “Result (blood level)” value is, setting by setting: (female) 3.10 µg/L; (male) 5.10 µg/L.

With `C=CC[C@@H]1/C=C(\C)C[C@H](C)C[C@H](OC)[C@H]2O[C@@](O)(C(=O)C(=O)N3CCCC[C@H]3C(=O)O[C@H](/C(C)=C/[C@@H]3CC[C@@H](O)[C@H](OC)C3)[C@H](C)[C@@H](O)CC1=O)[C@H](C)C[C@@H]2OC` [Tacrolimus], the “Result (blood level)” value by setting is: (female) 10.80 µg/L; (male) 6.80 µg/L.

The record behind these values is patent publication US20120164671A1, “METHODS FOR MONITORING IMMUNOSUPPRESSANT DRUG LEVELS, RENAL FUNCTION, AND HEPATIC FUNCTION USING SMALL VOLUME SAMPLES” (priority 2008, published 2012).
